Reference: patent publication US7928103B2, “Compounds which modulate the CB2 receptor” (Boehringer Ingelheim International GmbH, priority 2006, dated 2011)

How the values were obtained:
human CB2R [1] = target: T1, human CB2R (Homo sapiens, UniProt P34972); test: CB2R mediated modulation of cAMP synthesis; type: cell-based; design: host or cells: CHO cells; details: agonists decrease forskolin induced production of cAMP; CHO cells expressing human CB2R
Procedure: B. CB2R Mediated Modulation of cAMP Synthesis:
Compounds of the invention were evaluated for their CB2 agonist or inverse agonistic activity in accordance with the following experimental method.
CHO cells expressing human CB2R (Euroscreen) were plated at a density of 5000 cells per well in 384 well plates and incubated overnight at 37° C. After removing the media, the cells were treated with test compounds diluted in stimulation buffer containing 1 mM IBMX, 0.25% BSA and 10 uM Forskolin. The assay was incubated for 30 minutes at 37° C. Cells were lysed and the cAMP concentration was measured using DiscoverX-XS cAMP kit, following the manufacturer's protocol. In this setting, agonists will decrease forskolin induced production of cAMP while inverse agonists will further increase forskolin induced production of cAMP. EC50 of agonists were calculated as follows. The maximal amount of cAMP produced by forskolin compared to the level of cAMP inhibited by 1 uM CP55940 is defined as 100%. The EC50 value of each test compound was determined as the concentration at which 50% of the forskolin-stimulated cAMP synthesis was inhibited. Data was analyzed using a four-parameter logistic model. (Model 205 of XLfit 4.0).

human CB2R [2] = target: T1, human CB2R; test: Human CB2 receptor binding (3H-CP55940 competition, SPA); design: purchased Perkin Elmer Life and Analytical Sciences; host or cells: HEK293 EBNA cells, stably transfected; details: through the use of the above described assays (CB1/CB2 binding, CB2R and CB1R cAMP); assay not specified further
Procedure: A. Human CB1 and CB2 Receptor Binding:
CB2 membranes were purchased and made from HEK293 EBNA cells stably transfected with human CB2 receptor cDNA (Perkin Elmer Life and Analytical Sciences). CB1 membranes were isolated from HEK cells stably co-transfected with human CB1 receptor and Gα16 cDNA's. The membrane preparation was bound to scintillation beads (Ysi-Poly-L-lysine SPA beads, GE Healthcare) for 4 hours at room temperature in assay buffer containing 50 mM Tris, pH 7.5, 2.5 mM EDTA, 5 mM MgCl2, 0.8% fatty acid free Bovine Serum Albumin. Unbound membrane was removed by washing in assay buffer. Membrane-bead mixture was added to 96-well assay plates in the amounts of 15 ug membrane per well (CB2) or 2.5 ug per well (CB1) and 1 mg SPA bead per well. Compounds were added to the membrane-bead mixture in dose-response concentrations ranging from 1×10^−5 M to 1×10^−10 M with 0.25% DMSO, final. The competition reaction was initiated with the addition of ^3H-CP55940 (Perkin Elmer Life and Analytical Sciences) at a final concentration of 1.5 nM (CB2) or 2.5 nM (CB1). The reaction was incubated at room temperature for 18 hours and read on TopCount NXT plate reader. Total and non-specific binding was determined in the absence and presence of 1.25 uM Win 55212 (Sigma). IC50 values for each compound were calculated as the concentration of compound that inhibits the specific binding of the radioactively labeled ligand to the receptor by 50% using the XLFit 4.1 four parameter logistic model. IC50 values were converted to inhibition constant (Ki) values using Cheng-Prusoff equation.

T1 sequence (P34972 whole entry): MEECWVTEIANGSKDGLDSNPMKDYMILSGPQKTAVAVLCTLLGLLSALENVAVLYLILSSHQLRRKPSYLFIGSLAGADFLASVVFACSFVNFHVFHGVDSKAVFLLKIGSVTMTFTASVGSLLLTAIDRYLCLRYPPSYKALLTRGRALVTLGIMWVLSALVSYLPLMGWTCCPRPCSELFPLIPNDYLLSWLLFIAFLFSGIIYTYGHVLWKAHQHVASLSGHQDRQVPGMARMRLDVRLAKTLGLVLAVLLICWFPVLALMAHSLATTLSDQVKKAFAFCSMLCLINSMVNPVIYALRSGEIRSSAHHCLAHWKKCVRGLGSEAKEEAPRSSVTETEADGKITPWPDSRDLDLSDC

found to exhibit agonistic activity (human CB2R [1]) | found to exhibit activity (human CB2R [2]) | Compound
exhibit agonistic activity | exhibit activity | Cc1ccccc1Nc1ccc(CN2CCO[C@@H](c3ccccc3)C2)cn1 [Example 24, [5-((S)-2-Phenyl-morpholin-4-ylmethyl)-pyridin-2-yl]-o-tolyl-amine]
exhibit agonistic activity | exhibit activity | Fc1cccc(Nc2ccc(CN3CCO[C@@H](c4ccccc4)C3)cn2)c1 [Example 25, (3-Fluoro-phenyl)-[5-((S)-2-phenyl-morpholin-4-ylmethyl)-pyridin-2-yl]-amine]
exhibit agonistic activity | exhibit activity | Clc1cccc(Nc2ccc(CN3CCO[C@@H](c4ccccc4)C3)cn2)c1 [Example 26, (3-Chloro-phenyl)-[5-((S)-2-phenyl-morpholin-4-ylmethyl)-pyridin-2-yl]-amine]
exhibit agonistic activity | exhibit activity | Clc1ccc(Nc2ccc(CN3CCO[C@@H](c4ccccc4)C3)cn2)cc1Cl [Example 27, (3,4-Dichloro-phenyl)-[5-((S)-2-phenyl-morpholin-4-ylmethyl)-pyridin-2-yl]-amine]
exhibit agonistic activity | exhibit activity | Cc1cccc(Nc2ccc(CN3CCO[C@@H](c4ccccc4)C3)cn2)c1 [Example 28, [5-((S)-2-Phenyl-morpholin-4-ylmethyl)-pyridin-2-yl]-m-tolyl-amine]
exhibit agonistic activity | exhibit activity | c1ccc([C@H]2CN(Cc3ccc(Nc4cc5ccccc5cn4)nc3)CCO2)cc1 [Example 33, Isoquinolin-3-yl-[5-((S)-2-phenyl-morpholin-4-ylmethyl)-pyridin-2-yl]-amine]

Second part, the molecule before the results:

Compound | found to exhibit agonistic activity (human CB2R [1]) | found to exhibit activity (human CB2R [2])
Fc1ccc(Nc2ccc(CN3CCO[C@@H](c4ccccc4)C3)cn2)cc1 [Example 29, (4-Fluoro-phenyl)-[5-((S)-2-phenyl-morpholin-4-ylmethyl)-pyridin-2-yl]-amine] | exhibit agonistic activity | exhibit activity
Clc1ccc(Nc2ccc(CN3CCO[C@@H](c4ccccc4)C3)cn2)cc1 [Example 30, (4-Chloro-phenyl)-[5-((S)-2-phenyl-morpholin-4-ylmethyl)-pyridin-2-yl]-amine] | exhibit agonistic activity | exhibit activity
Cc1ccc(Nc2ccc(CN3CCO[C@@H](c4ccccc4)C3)cn2)cc1 [Example 31, [5-((S)-2-Phenyl-morpholin-4-ylmethyl)-pyridin-2-yl]-p-tolyl-amine] | exhibit agonistic activity | exhibit activity
FC(F)(F)Oc1ccccc1Nc1ccc(CN2CCO[C@@H](c3ccccc3)C2)cn1 [Example 32, [5-((S)-2-Phenyl-morpholin-4-ylmethyl)-pyridin-2-yl]-(2-trifluoromethoxy-phenyl)-amine] | exhibit agonistic activity | exhibit activity
c1ccc(Oc2ccc(CN3CCO[C@@H](c4ccccc4)C3)cc2)cc1 [Example 34, (S)-4-(4-Phenoxy-benzyl)-2-phenyl-morpholine] | exhibit agonistic activity | exhibit activity
